Assay results from patent US20240148720A1, “Use of Histamine Antagonists and Glucocorticoid for Treating and Preventing Neurodegenerative Diseases” (City University of Hong Kong, priority 2022, published 2024).
Counter-ions that a name gives are not always drawn.

Assays:
[1] = cited from earlier work
histamine H4 receptor = histamine H4 receptor (Homo sapiens, UniProt Q9H3N8); settings: cited from earlier work
STZ-treated mice [2] = assay: Y-maze spontaneous alternation test, streptozocin-induced sporadic AD mouse model; settings: STZ ICV mice; VUF6002 2.5 mg/kg i.p. daily for 21 days; FIG. 1B
STZ-treated mice [3] = assay: Barnes maze test, streptozocin-induced sporadic AD mouse model; settings: STZ ICV mice, VUF6002 2.5 mg/kg i.p. 21 days
APP/PS1 mice [4] = assay: Morris Water Maze test, APP/PS1 mice; settings: 8-month-old APP/PS1 mice; for escape latency to find the hidden platform: FIG. 6C
3xTg-AD mice [5] = assay: Y-maze test, 3xTg-AD mice; settings: 17-month-old 3xTg-AD mice; VUF6002 2.5 mg/kg daily about 3 months; FIG. 3B
[6] = rats; 100 mg/kg; cited from earlier work
microglia = assay: Anti-IBA-1 immunostaining of microglia in hippocampal CA1 of 3xTg-AD mice; settings: 17-month-old 3xTg-AD mice
[7] = cited from earlier work; remark: listed apart in the source
APP/PS1 mice [8] = assay: Y-maze test, APP/PS1 mice; settings: 8-month-old APP/PS1 mice
3xTg-AD mice [9] = assay: Novel object recognition test, 3xTg-AD mice; settings: 17-month-old 3xTg-AD mice; VUF6002 2.5 mg/kg daily about 3 months; FIG. 3C
hyperphosphorylated Tau = assay: Anti-AT8 immunostaining of hyperphosphorylated Tau in hippocampus of 3xTg-AD mice; settings: 17-month-old 3xTg-AD mice
APP/PS1 mice [10] = assay: Novel object recognition test, APP/PS1 mice; settings: 8-month-old APP/PS1 mice; VUF6002 2.5 mg/kg i.p. daily 1 month; vs vehicle; FIG. 2C
3xTg-AD mice [11] = assay: Barnes maze test, 3xTg-AD mice; settings: 17-month-old 3xTg-AD mice, VUF6002 2.5 mg/kg daily about 3 months

Chain of histamine H4 receptor (Q9H3N8 whole entry, species assumed): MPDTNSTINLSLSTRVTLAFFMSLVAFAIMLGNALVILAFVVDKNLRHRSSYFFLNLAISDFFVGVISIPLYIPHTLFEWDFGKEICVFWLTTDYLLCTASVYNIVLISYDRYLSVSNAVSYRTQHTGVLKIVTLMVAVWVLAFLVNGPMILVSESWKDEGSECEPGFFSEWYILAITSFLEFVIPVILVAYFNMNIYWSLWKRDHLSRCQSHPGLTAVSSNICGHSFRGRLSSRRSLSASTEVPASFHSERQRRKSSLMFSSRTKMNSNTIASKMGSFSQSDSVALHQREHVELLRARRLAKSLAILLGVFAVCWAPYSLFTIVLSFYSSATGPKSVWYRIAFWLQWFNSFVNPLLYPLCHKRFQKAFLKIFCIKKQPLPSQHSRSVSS

Question: With `CC(C)c1cc(N2CC[C@@H](N)C2)nc(N)n1` [JNJ39758979] as the molecule, how does the “severe side effects in humans” value [1] read?
Answer: Its value is “may induces agranulocytosis in humans”.

Question: Which “binding to histamine receptors” value (histamine H4 receptor) does the source give for `CN1CCN2c3ccccc3Cc3ccccc3C2C1` (stereo not shown) [Mianserin] here?
Answer: The value was “can bind to histamine H1, H3, and H4 receptors”.

Question: With `S=C(NC1CCCCC1)N1CCC(c2cnc[nH]2)CC1` [Thioperamide] as the molecule, how does the “binding to histamine receptors” value (histamine H4 receptor) read?
Answer: Its value is “can bind to histamine H3 and H4 receptors”.

Question: Which results are given for `CN1CCN(C(=O)c2nc3cc(Cl)ccc3[nH]2)CC1` [VUF6002, 1-[(5-chloro-1H-benzimidazol-2-yl)carbonyl]-4-methylpiperazine maleate]?
Answer: spontaneous alternation rate (short-term spatial working memory) (STZ-treated mice [2]): completely reversed; error to find the target hole, probe trial (STZ-treated mice [3]; FIG. 1E): reduces the error to find the target hole; time spent in target quadrant, probe trial (STZ-treated mice [3]; FIG. 1F): markedly increases the time spent in target quadrant; latency to get into the hidden escape box (long-term spatial memory) (STZ-treated mice [3]; day 25 post injection, FIG. 1D): completely reverses the STZ-induced long-term memory deficits; long-term spatial memory during the training phase (APP/PS1 mice [4]; VUF6002 2.5 mg/kg i.p. daily 1 month, FIG. 2D): markedly improved; number of platform crosses, probe test (APP/PS1 mice [4]; VUF6002 2.5 mg/kg i.p. daily 1 month, vs vehicle, FIG. 2E): make more attempts to swim across the original location of the platform; time spent in the target quadrant, probe test (APP/PS1 mice [4]; VUF6002 2.5 mg/kg i.p. daily 1 month, vs vehicle, FIG. 2F): spend more time on searching the platform in the target quadrant; short-term memory, performance on Y-maze (3xTg-AD mice [5]): completely reverse the memory deficit; anti-inflammation effect [6]: revealed an anti-inflammation effect; intensity of Iba-1-positive microglia, hippocampal CA1 region (microglia; VUF6002 2.5 mg/kg 3 months, FIG. 5A): markedly reduces the intensity of Iba-1-positive; density of microglia, hippocampal CA1 region (microglia; VUF6002 2.5 mg/kg, FIG. 5B): significantly reduces the density of microglia; severe side effect on animal models [7]: has not been reported to have a severe side effect; spontaneous alternation rate (APP/PS1 mice [8]; VUF6002 2.5 mg/kg i.p. daily 1 month, vs vehicle, FIG. 2B): significantly elevates; short-term memory, performance on novel object recognition test (3xTg-AD mice [9]): completely reverse the memory deficit; mean intensity of AT8 (p-Tau), CA1 region of hippocampus (hyperphosphorylated Tau; VUF6002 2.5 mg/kg 3 months, FIG. 4C-4D): markedly reduces the mean intensity of AT8; recognition index (APP/PS1 mice [10]): significantly elevates; performance during the training phase of Barnes Maze test (3xTg-AD mice [11]; FIG. 3D): marked improvement; primary errors to find the target hole, probe test (3xTg-AD mice [11]; vs vehicle, FIG. 3E): make fewer errors to find the target hole; time spent in the target quadrant, probe test (3xTg-AD mice [11]; vs vehicle, FIG. 3F): spend more time in the target quadrant

Question: Which “escape latency to find the hidden platform” value (APP/PS1 mice [4]; dexamethasone 1 mg/kg i.p. one month, vs vehicle) does the source give for `C[C@@H]1C[C@H]2[C@@H]3CCC4=CC(=O)C=C[C@]4(C)[C@@]3(F)[C@@H](O)C[C@]2(C)[C@@]1(O)C(=O)CO` [dexamethasone, (11β,16α)-9-Fluoro-11,17,21-trihydroxy-16-methylpregna-1,4-diene-3,20-dione] here?
Answer: Its value is “does not significantly reduce the latency”.

Question: What about the “escape latency to find the hidden platform” value (APP/PS1 mice [4]; dexamethasone 1 mg/kg i.p. two months) of the same molecule?
Answer: The value was “reverses the long-term memory deficits”.

Question: And the “number of platform crosses, probe test” value (APP/PS1 mice [4]; dexamethasone 1 mg/kg i.p. two months, vs vehicle, FIG. 6D)?
Answer: Its value is “conspicuously increased number of platform crosses”.

Question: What about the “time spent in the target quadrant, probe test” value (APP/PS1 mice [4]; dexamethasone 1 mg/kg i.p. two months, vs vehicle, FIG. 6E) of the same molecule?
Answer: Its value is “conspicuously increased”.

Question: And the “spontaneous alternation rate (short-term spatial working memory)” value (APP/PS1 mice [8]; dexamethasone 1 mg/kg i.p. two months, FIG. 6A)?
Answer: Its value is “prominently improves the short-term memory deficits”.

Question: What about the “reduction of phosphorylated Tau (AT8) intensity, hippocampal subiculum area” value (hyperphosphorylated Tau; dexamethasone from 14- to 17-month-old, FIG. 7C-7D) of the same molecule?
Answer: Its value is 53.3%.
